What was measured:
maize callus cultures = details: callus cultures of 4 maize lines; 0-20 g/L; three weeks
[1] = test system: plant material transgenic for the mannose 6-phosphate isomerase gene; test: Effect of methyl-3-O-glucose on selection of transgenic shoots on mannose; assay type: cell-based; details: mannose 15 g/l; MOG 0 g/l; no sucrose
Excerpt: The transformed plant material is transgenic for the mannose 6-phosphate isomerase gene. After 21 days the selected shoots are harvested.

immature maize embryos = test: Mannose selection of bombarded immature maize embryos; assay type: cell-based; details: selection on 10 g/L D-mannose for 3 weeks; 420 embryos
maize protoplasts = test: Mannose selection in maize protoplast PEG-mediated transformation; assay type: cell-based; details: 2% mannose for one to two weeks; 47/17 million protoplasts
Wild type explants = test: Regenerated shoots selected by compounds in addition to mannose, wild type; assay type: cell-based; details: genotype Wild type
[2] = test system: explants with the mannose 6-phosphate isomerase gene from E. coli; test: Regenerated shoots selected by compounds in addition to mannose, M-6-P-isomerase; assay type: cell-based; details: genotype M-6-P-isomerase
[3] = test system: non-transformed potato stem segments; test: Inhibition by mannose of regeneration of shoots; assay type: cell-based, Solanum tuberosum
Method: This substrate is referred to hereafter as "selection/regeneration substrate". Regenerated plants are produced as described above, except that the shoot segments are not co-cultured with bacteria and the washing procedure consequential thereon is omitted. […] In general, mannose cannot be used as a carbohydrate source in most plant species. When mannose is added to plants it is metabolized and mannose 6-phosphate accumulates. Mannose 6-phosphate can be converted to fructose 6-phosphate by mannose 6-phosphate isomerase, the amount converted being dependent upon the activity of the isomerase. Such fructose 6-phosphate may be utilized by plants, but in principal high levels of mannose (whether or not an alternative carbohydrate source is available) are toxic to plants.

O=C[C@@H](O)[C@@H](O)[C@H](O)[C@H](O)CO [mannose, D-mannose]
utilization as carbohydrate source, in words (maize callus cultures): cannot be utilized as the sole carbohydrate source | GUS+ shoots/explant [1]: 0 | GUS+ shoots/sel. shoots (%) [1]: 0% | % transformation (immature maize embryos): 2.9% | stable transformation frequency (maize protoplasts): 0.00028% | Number of regenerated shoots per explant (Wild type explants): 0 | Number of regenerated shoots per explant [2]: 1.1 | Regenerated shoots/explant (%) ([3]; sucrose 0 g/l, mannose 5 g/l, up to 40th day): 0% | Regenerated shoots/explant (%) ([3]; sucrose 0 g/l, mannose 10 g/l): 0% | Regenerated shoots/explant (%) ([3]; sucrose 0 g/l, mannose 20 g/l): 0% | Regenerated shoots/explant (%) ([3]; sucrose 10 g/l, mannose 5 g/l): 3% | Regenerated shoots/explant (%) ([3]; sucrose 10 g/l, mannose 10 g/l): 0% | Regenerated shoots/explant (%) ([3]; sucrose 10 g/l, mannose 20 g/l): 0% | Regenerated shoots/explant (%) ([3]; sucrose 20 g/l, mannose 5 g/l): 0% | Regenerated shoots/explant (%) ([3]; sucrose 20 g/l, mannose 10 g/l): 0% | Regenerated shoots/explant (%) ([3]; sucrose 20 g/l, mannose 20 g/l): 0%

Reference: US5994629A, “Positive selection” (priority 1991, dated 1999)
